From the NIST ThermoML archive (doi:10.1021/je100832h)
Numbers after ± are expanded uncertainties.

How the values were obtained:
[1] = xn = mol fraction of the nth substance listed; conditions: 101.32 kPa, Liquid, Vibrating tube method
[2] = excess molar enthalpy (molar enthalpy of mixing); xn = mol fraction of the nth substance listed; conditions: 291.15 K, 101 kPa, Liquid, Calvet calorimetry

CCOC(C)=O [ethyl acetate] + CCCCCCC
[1]
Conditions | mass density [kg/m3]
291.15 K, x1 = 0.0161 | 687.34 ± 0.32
291.15 K, x1 = 0.0572 | 692.44 ± 0.32
291.15 K, x1 = 0.1159 | 700.33 ± 0.32
291.15 K, x1 = 0.2057 | 713.27 ± 0.32
291.15 K, x1 = 0.2894 | 726.55 ± 0.32
291.15 K, x1 = 0.3673 | 740 ± 0.32
291.15 K, x1 = 0.4396 | 753.43 ± 0.32
291.15 K, x1 = 0.5126 | 768.17 ± 0.33
291.15 K, x1 = 0.5792 | 782.54 ± 0.32
291.15 K, x1 = 0.6414 | 796.91 ± 0.32
291.15 K, x1 = 0.7006 | 811.5 ± 0.32
291.15 K, x1 = 0.7555 | 825.89 ± 0.31
291.15 K, x1 = 0.8141 | 842.35 ± 0.31
291.15 K, x1 = 0.8631 | 856.84 ± 0.31
291.15 K, x1 = 0.9105 | 872 ± 0.3
291.15 K, x1 = 0.9718 | 892.61 ± 0.3
291.15 K, x1 = 1 | 902.88 ± 0.3
298.15 K, x1 = 0.0409 | 684.35 ± 0.32
298.15 K, x1 = 0.0568 | 686.42 ± 0.32
298.15 K, x1 = 0.1196 | 694.72 ± 0.32
298.15 K, x1 = 0.1493 | 698.85 ± 0.32
298.15 K, x1 = 0.2079 | 707.39 ± 0.32
298.15 K, x1 = 0.2587 | 715.2 ± 0.32
298.15 K, x1 = 0.2981 | 721.51 ± 0.32
298.15 K, x1 = 0.3171 | 724.7 ± 0.32
298.15 K, x1 = 0.3703 | 733.9 ± 0.32
298.15 K, x1 = 0.4203 | 743.04 ± 0.32
298.15 K, x1 = 0.4911 | 756.8 ± 0.33
298.15 K, x1 = 0.5587 | 770.85 ± 0.32
298.15 K, x1 = 0.6169 | 783.73 ± 0.32
298.15 K, x1 = 0.6668 | 795.46 ± 0.32
298.15 K, x1 = 0.727 | 810.54 ± 0.32
298.15 K, x1 = 0.778 | 824.17 ± 0.31
298.15 K, x1 = 0.8302 | 839.02 ± 0.31
298.15 K, x1 = 0.8787 | 853.8 ± 0.31
298.15 K, x1 = 0.9206 | 867.23 ± 0.3
298.15 K, x1 = 0.9879 | 890.2 ± 0.3
298.15 K, x1 = 1 | 894.4 ± 0.3
318.15 K, x1 = 0.053 | 668.2 ± 0.32
318.15 K, x1 = 0.0902 | 672.9 ± 0.32
318.15 K, x1 = 0.1685 | 683.15 ± 0.32
318.15 K, x1 = 0.2326 | 692.18 ± 0.32
318.15 K, x1 = 0.2439 | 693.85 ± 0.32
318.15 K, x1 = 0.2981 | 702.14 ± 0.32
318.15 K, x1 = 0.3991 | 719.02 ± 0.33
318.15 K, x1 = 0.4184 | 722.43 ± 0.33
318.15 K, x1 = 0.4793 | 733.7 ± 0.33
318.15 K, x1 = 0.528 | 743.25 ± 0.33
318.15 K, x1 = 0.5785 | 753.7 ± 0.33
318.15 K, x1 = 0.6277 | 764.5 ± 0.32
318.15 K, x1 = 0.6774 | 775.92 ± 0.32
318.15 K, x1 = 0.7248 | 787.48 ± 0.32
318.15 K, x1 = 0.7652 | 797.95 ± 0.32
318.15 K, x1 = 0.7914 | 804.97 ± 0.31
318.15 K, x1 = 0.8486 | 821.19 ± 0.31
318.15 K, x1 = 0.9067 | 838.76 ± 0.31
318.15 K, x1 = 0.9554 | 854.25 ± 0.31
318.15 K, x1 = 1 | 869.6 ± 0.3
328.15 K, x1 = 0.0084 | 654.45 ± 0.33
328.15 K, x1 = 0.1044 | 665.69 ± 0.32
328.15 K, x1 = 0.1911 | 676.99 ± 0.32
328.15 K, x1 = 0.2817 | 690.09 ± 0.32
328.15 K, x1 = 0.3479 | 700.46 ± 0.32
328.15 K, x1 = 0.423 | 713.16 ± 0.33
328.15 K, x1 = 0.488 | 725.11 ± 0.33
328.15 K, x1 = 0.5492 | 737.13 ± 0.33
328.15 K, x1 = 0.621 | 752.34 ± 0.32
328.15 K, x1 = 0.6655 | 762.36 ± 0.32
328.15 K, x1 = 0.7209 | 775.45 ± 0.32
328.15 K, x1 = 0.7755 | 789.39 ± 0.32
328.15 K, x1 = 0.8274 | 803.37 ± 0.31
328.15 K, x1 = 0.8717 | 815.94 ± 0.31
328.15 K, x1 = 0.9217 | 831.14 ± 0.31
328.15 K, x1 = 0.9731 | 847.9 ± 0.31
328.15 K, x1 = 1 | 857.17 ± 0.31

[2]
Conditions | excess molar enthalpy [kJ/mol]
x1 = 0.0704 | 0.446 ± 0.01
x1 = 0.1554 | 0.83 ± 0.018
x1 = 0.2363 | 1.14 ± 0.024
x1 = 0.3039 | 1.35 ± 0.029
x1 = 0.3738 | 1.5 ± 0.032
x1 = 0.4354 | 1.57 ± 0.034
x1 = 0.4887 | 1.58 ± 0.034
x1 = 0.5306 | 1.57 ± 0.034
x1 = 0.5794 | 1.54 ± 0.033
x1 = 0.6196 | 1.49 ± 0.032
x1 = 0.6682 | 1.4 ± 0.03
x1 = 0.7293 | 1.25 ± 0.027
x1 = 0.7913 | 1.07 ± 0.023
x1 = 0.8405 | 0.855 ± 0.018
x1 = 0.9015 | 0.573 ± 0.013
x1 = 0.9556 | 0.279 ± 0.007

CCCCCCCCC [nonane] + CCOC(C)=O
[1]
Conditions | mass density [kg/m3]
291.15 K, x2 = 0 | 719.2 ± 0.56
291.15 K, x2 = 0.0328 | 721.88 ± 0.66
291.15 K, x2 = 0.0796 | 726 ± 0.67
291.15 K, x2 = 0.1292 | 730.54 ± 0.69
291.15 K, x2 = 0.2225 | 740.13 ± 0.72
291.15 K, x2 = 0.3076 | 750 ± 0.77
291.15 K, x2 = 0.3932 | 761.25 ± 0.81
291.15 K, x2 = 0.4659 | 771.77 ± 0.87
291.15 K, x2 = 0.5694 | 788.99 ± 0.92
291.15 K, x2 = 0.6015 | 794.91 ± 0.99
291.15 K, x2 = 0.6514 | 804.7 ± 1
291.15 K, x2 = 0.7041 | 815.84 ± 1.1
291.15 K, x2 = 0.7547 | 827.59 ± 1.2
291.15 K, x2 = 0.8076 | 840.96 ± 1.2
291.15 K, x2 = 0.8502 | 852.64 ± 1.3
291.15 K, x2 = 0.8954 | 866.2 ± 1.4
291.15 K, x2 = 0.9307 | 877.58 ± 1.6
291.15 K, x2 = 0.9918 | 899.59 ± 1.8
298.15 K, x2 = 0 | 713.85 ± 0.55
298.15 K, x2 = 0.0652 | 719.2 ± 0.65
298.15 K, x2 = 0.1102 | 723.17 ± 0.68
298.15 K, x2 = 0.1906 | 730.94 ± 0.7
298.15 K, x2 = 0.2667 | 739.14 ± 0.73
298.15 K, x2 = 0.3377 | 747.65 ± 0.77
298.15 K, x2 = 0.4128 | 757.7 ± 0.81
298.15 K, x2 = 0.4737 | 766.6 ± 0.85
298.15 K, x2 = 0.5212 | 774.12 ± 0.9
298.15 K, x2 = 0.5875 | 785.5 ± 0.93
298.15 K, x2 = 0.6305 | 793.54 ± 0.99
298.15 K, x2 = 0.6743 | 802.32 ± 1.1
298.15 K, x2 = 0.7212 | 812.53 ± 1.1
298.15 K, x2 = 0.767 | 823.2 ± 1.2
298.15 K, x2 = 0.8024 | 832.16 ± 1.2
298.15 K, x2 = 0.8428 | 843.01 ± 1.3
298.15 K, x2 = 0.8654 | 849.38 ± 1.4
298.15 K, x2 = 0.9419 | 873.16 ± 1.5
298.15 K, x2 = 0.9564 | 878.07 ± 1.6
318.15 K, x2 = 0 | 698.09 ± 0.54
318.15 K, x2 = 0.0372 | 700.83 ± 0.63
318.15 K, x2 = 0.1287 | 708.3 ± 0.65
318.15 K, x2 = 0.2206 | 717 ± 0.69
318.15 K, x2 = 0.3125 | 726.84 ± 0.72
318.15 K, x2 = 0.3941 | 736.68 ± 0.77
318.15 K, x2 = 0.4659 | 746.38 ± 0.81
318.15 K, x2 = 0.5311 | 756.19 ± 0.87
318.15 K, x2 = 0.5965 | 767.1 ± 0.93
318.15 K, x2 = 0.6714 | 781.02 ± 0.98
318.15 K, x2 = 0.7111 | 789.15 ± 1.1
318.15 K, x2 = 0.7598 | 799.77 ± 1.1
318.15 K, x2 = 0.8122 | 812.28 ± 1.2
318.15 K, x2 = 0.8596 | 824.75 ± 1.3
318.15 K, x2 = 0.8955 | 835.04 ± 1.4
318.15 K, x2 = 0.936 | 847.56 ± 1.4
318.15 K, x2 = 0.9808 | 862.66 ± 1.5
328.15 K, x2 = 0 | 690.4 ± 0.54
328.15 K, x2 = 0.0202 | 691.7 ± 0.6
328.15 K, x2 = 0.1246 | 699.9 ± 0.64
328.15 K, x2 = 0.2225 | 708.81 ± 0.67
328.15 K, x2 = 0.3109 | 717.88 ± 0.71
328.15 K, x2 = 0.3923 | 727.35 ± 0.75
328.15 K, x2 = 0.4644 | 736.84 ± 0.8
328.15 K, x2 = 0.5377 | 747.63 ± 0.85
328.15 K, x2 = 0.6125 | 759.98 ± 0.94
328.15 K, x2 = 0.7233 | 781.1 ± 0.99
328.15 K, x2 = 0.7593 | 788.8 ± 1.1
328.15 K, x2 = 0.8102 | 800.56 ± 1.1
328.15 K, x2 = 0.8505 | 810.9 ± 1.2
328.15 K, x2 = 0.8934 | 822.54 ± 1.3
328.15 K, x2 = 0.9507 | 840.17 ± 1.4
328.15 K, x2 = 0.9876 | 852.64 ± 1.5

[2]
Conditions | excess molar enthalpy [kJ/mol]
x2 = 0.0872 | 0.551 ± 0.012
x2 = 0.1735 | 0.942 ± 0.02
x2 = 0.2499 | 1.25 ± 0.027
x2 = 0.3159 | 1.47 ± 0.031
x2 = 0.3746 | 1.6 ± 0.034
x2 = 0.433 | 1.69 ± 0.036
x2 = 0.4869 | 1.73 ± 0.037
x2 = 0.534 | 1.74 ± 0.037
x2 = 0.5836 | 1.72 ± 0.037
x2 = 0.6005 | 1.7 ± 0.036
x2 = 0.6419 | 1.65 ± 0.035
x2 = 0.6885 | 1.56 ± 0.033
x2 = 0.7366 | 1.45 ± 0.031
x2 = 0.7846 | 1.3 ± 0.028
x2 = 0.8345 | 1.1 ± 0.024
x2 = 0.8779 | 0.856 ± 0.019
x2 = 0.9237 | 0.588 ± 0.013
x2 = 0.9619 | 0.307 ± 0.007
